Values of other authors in patent publication US8679552B2, “Acne vulgaris treatment regimen” (priority 2008, dated 2014).

Experiments:
[1] = system: 5 alpha-reductase
[2] = system: 5 alpha-reductase; remark: listed apart in the source
[3] = system: comedones; conditions: topical
[4] = biological target: T1, type-1 5 alpha-reductase (Homo sapiens, UniProt P18405)
T1 sequence (P18405 1-259): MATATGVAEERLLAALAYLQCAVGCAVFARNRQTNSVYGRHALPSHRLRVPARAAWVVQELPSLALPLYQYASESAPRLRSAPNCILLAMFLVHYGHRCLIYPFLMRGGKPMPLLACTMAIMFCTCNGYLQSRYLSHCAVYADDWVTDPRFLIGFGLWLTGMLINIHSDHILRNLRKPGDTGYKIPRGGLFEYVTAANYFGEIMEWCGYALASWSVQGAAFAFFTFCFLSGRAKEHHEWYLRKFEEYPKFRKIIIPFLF

[5] = system: gram-positive bacteria
[6] = system: skin irritation; conditions: concentrations of 5%, three to four week period
[7] = system: 17-beta-hydroxysteroid dehydrogenase

## epigallocatechin 3-gallate [EGCG]
[1]; cell-free
  inhibition of 5 alpha-reductase in cell-free assay systems: potent inhibition
[2]
  inhibition of 5 alpha-reductase in whole-cell assay systems: not in whole-cell assay systems

## [Zn+2] [Zinc cation]
[1]; high concentrations
  inhibition of 5 alpha-reductase enzyme activity at high concentrations: completely inhibiting the enzyme activity

## O=C(O)c1ccccc1O [salicylic acid, Salicylic acid]
[3]; concentrations of 0.5% to 2.0%
  comedolytic effect: moderately comedolytic

## CCCCCCCCCCCCOC(=O)c1cc(O)c(O)c(O)c1 [lauryl gallate]
[4]
  inhibition of type-1 5 alpha-reductase: potent inhibitors

## O=C1OC[C@H](Cc2cccc(O)c2)[C@H]1Cc1cccc(O)c1 [enterolactone]
[1]
  5 alpha-reductase inhibitory activity: most potent inhibitor

## CC(Cc1ccc(O)c(O)c1)C(C)Cc1ccc(O)c(O)c1 (stereo not drawn) [nordihydroguaiaretic acid]
[4]
  inhibition of type-1 5 alpha-reductase: potent inhibitors

## Cc1ncc(CO)c(CO)c1O.Cl [Vitamin B6, Pyridoxine hydrochloride]
[1]; Vitamin B6 (0.025%) added to zinc sulfate (1.5 to 3 milliMolar/liter)
  increase in the inhibition of 5 alpha-reductase: two fold increase

## O=c1c(O)c(-c2ccc(O)c(O)c2)oc2cc(O)cc(O)c12 [quercitin]
[4]
  inhibition of type-1 5 alpha-reductase: potent inhibitors

## O=C(O)CCCCCCCC(=O)O [Azelaic acid]
[1]
  concentration at which effective / potent 5 alpha-reductase inhibitor: ≥ 0.2 milliMolar
  concentration that is completely inhibitory of 5 alpha-reductase: 3 milliMolar

## CC1=C(/C=C/C(C)=C/C=C/C(C)=C/C=O)C(C)(C)CCC1 [Retinaldehyde]
[5]
  in vitro antibacterial activity against gram-positive bacteria: significant in vitro antibacterial activity
[3]; concentration of 0.1%
  effectiveness at preventing comedones: as effective at preventing comedones as other topical vitamin A products

## O=C(/C=C/c1ccc(O)c(O)c1)OCCc1ccccc1 [caffeic acid phenethyl ester]
[4]
  inhibition of type-1 5 alpha-reductase: potent inhibitors

## CCCCCCCCOC(=O)c1cc(O)c(O)c(O)c1 [octyl gallate]
[4]
  inhibition of type-1 5 alpha-reductase: potent inhibitors

## O=c1cc(-c2ccccc2)oc2cc(O)c(O)c(O)c12 [baicalein]
[4]
  inhibition of type-1 5 alpha-reductase: potent inhibitors

## CC(C)(CO)[C@@H](O)C(=O)NCCCO [dexpanthenol]
[6]
  symptoms of skin irritation (dryness, roughness, scaling, pruritis, erythema, erosion/fissures): considerably improves

## Oc1ccc2c(O)c3ccccc3cc2c1O [anthrarobin]
[4]
  inhibition of type-1 5 alpha-reductase: potent inhibitors

## O=C1c2ccccc2C(=O)c2c1ccc(O)c2O [alizarin]
[4]
  inhibition of type-1 5 alpha-reductase: potent inhibitors

## CC1(C)[C@@H](O)CC[C@]2(C)[C@H]3C(=O)C=C4[C@@H]5C[C@@](C)(C(=O)O)CC[C@]5(C)CC[C@@]4(C)[C@]3(C)CC[C@@H]12 [glycyrrhetinic acid]
[7]
  concentration which suppresses 17-beta-hydroxysteroid dehydrogenase activity: ≥ 4 microMolar

## O=c1c(O)c(-c2ccc(O)c(O)c2)oc2cc(O)ccc12 [fisetin]
[4]
  inhibition of type-1 5 alpha-reductase: potent inhibitors
